Like-named read-outs stand apart in the source and are kept apart here. Some results are limits rather than exact numbers.

Consider 24 compounds from patent US20230151034A1 (COCRYSTAL PHARMA, INC., priority 2020, published 2023).

The target in the test is SARS2 protease (Severe acute respiratory syndrome coronavirus 2, UniProt P0DTD1). The test can be described thus: SARS-CoV-2 protease inhibition assay (SARS2 FRET protease assay). In kind it is biochemical. On the procedure:
Viral protease assays: The antiviral activities of inhibitors were determined by FRET (Fluorescence Resonance Energy Transfer) assay. Purified viral protease was incubated with the protease substrate peptide (Edans-DFHLQ/GP-Dabcyl) and inhibitor, and IC50 values were subsequently determined by the fluorescence signals.
The SARS2 FRET protease assay was performed in 20 mM HEPES-Na pH 7, 120 mM NaCl, 0.4 mM EDTA, 0.01% Triton, 5% glycerol, and 4 mM DTT. A self-quenching peptide substrate 5-FAM-TSA VLQ SGF RKK (5TAMRA)-NH2 was custom synthesized by Anaspec. Compounds were diluted in 3-fold serial dilutions to final concentrations of 20 μM to 1.0 nM. SARS2 protease was added to a final concentration of 25 nM, depending on the enzyme activity level, and the peptide substrate was added to a final concentration of 1.3 μM. The assay was incubated 30 minutes at 30° C. and read in a Perkin Elmer Envision with excitation at 473 nm and emission measurement at 519 nm.

Setting [1] is: Table E, SARS-CoV-2 protease inhibition, read-out: IC50.

`CCOP(=O)(OCC)C(O)[C@H](CCC(=O)N1CCCCc2ccccc21)NC(=O)[C@H](CC1CCCCC1)NC(=O)OCc1cccc(Cl)c1` (stereo partly drawn) [Compound A55, 3-Chlorobenzyl ((2S)-3-cyclohexyl-1-(((2S)-1-(diethoxyphosphoryl)-1-hydroxy-5-oxo-5-(2,3,4,5-tetrahydro-1H-benzo[b]azepin-1-yl)pentan-2-yl)amino)-1-oxopropan-2-yl)carbamate]: under setting [1], the IC50 was over 200 µM.

On to `CCCCCCCC1CC/C=C\CC(C(=O)N(C)C)CC(C(=O)N(C)OC)NC(=O)[C@H](CC(C)C)NC1=O` (stereo in doubt) [Compound B11, (2S,5S,Z)-13-heptyl-2-isobutyl-N^5-methoxy-N^5,N^7,N^7-trimethyl-3,14-dioxo-1,4-diazacyclotetradec-9-ene-5,7-dicarboxamide], for which, under setting [1], the half-inhibitory concentration (IC50) is over 200 µM.

As for `CCNC(=O)OCCN(C)C(=O)CC[C@@H](CO)NC(=O)[C@H](CC1CCCCC1)NC(=O)OCc1cccc(Cl)c1` [Compound A101, 3-Chlorobenzyl ((12S,15S)-16-cyclohexyl-12-(hydroxymethyl)-8-methyl-4,9,14-trioxo-5-oxa-3,8,13-triazahexadecan-15-yl)carbamate], the IC50 under setting [1] was over 200 µM.

As to `CCOP(=O)(OCC)C(O)[C@H](CCC(=O)N(C)CC(C)c1ccccc1)NC(=O)[C@H](CC1CCCCC1)NC(=O)OCc1cccc(Cl)c1` (stereo partly drawn) [Compound A102, 3-Chlorobenzyl ((2S)-3-cyclohexyl-1-(((2S)-1-(diethoxyphosphoryl)-1-hydroxy-5-(methyl(2-phenylpropyl)amino)-5-oxopentan-2-yl)amino)-1-oxopropan-2-yl)carbamate], under setting [1], the IC50 is over 200 µM. Still for that read-out and setting: the figure for `CN(CCc1ccccc1)C(=O)CC[C@@H](CO)NC(=O)[C@H](CC1CCCCC1)NC(=O)OCc1cccc(Cl)c1` [Compound A26, 3-chlorobenzyl ((S)-3-cyclohexyl-1-(((S)-1-hydroxy-5-(methyl(phenethyl)amino)-5-oxopentan-2-yl)amino)-1-oxopropan-2-yl)carbamate] is 14.7 µM.

Turning to `CCCCCCCCC(=O)N[C@@H](CC(C)C)C(=O)NC1(C)CCC(=O)N(C)C1(O)C(=O)NC(C)C` (stereo partly drawn) [Compound A5, 2-hydroxy-N-isopropyl-1,3-dimethyl-3-((S)-4-methyl-2-nonanamidopentanamido)-6-oxopiperidine-2-carboxamide], the IC50 under setting [1] is over 200 µM.

`CCOCCOCCN(C)C(=O)CC[C@H](NC(=O)[C@H](CC1CCCCC1)NC(=O)OCc1cccc(Cl)c1)C(=O)N(C)OC` [Compound A20, 3-Chlorobenzyl ((13S,16S)-17-cyclohexyl-13-(methoxy(methyl)carbamoyl)-9-methyl-10,15-dioxo-3,6-dioxa-9,14-diazaheptadecan-16-yl)carbamate]: the 50% inhibitory concentration (IC50) under setting [1] was over 200 µM.

On to `CCOP(=O)(OCC)[C@H](O)[C@@H]1CC(C(=O)N(C)Cc2ccc(OC)cc2OC)C/C=C/CCC(Cc2ccccc2)OC(=O)N[C@@H](CC(C)C)C(=O)N1` (stereo partly drawn) [Compound B28, Diethyl ((1S)-((4S,7S,E)-15-benzyl-9-((2,4-dimethoxybenzyl)(methyl)carbamoyl)-4-isobutyl-2,5-dioxo-1-oxa-3,6-diazacyclopentadec-11-en-7-yl)(hydroxy)methyl)phosphonate], for which the IC50 under setting [1] was over 200 µM. Regarding `CCNC(=O)OCCN(C)C(=O)CC[C@H](NC(=O)[C@H](CC1CCCCC1)NC(=O)OCc1cccc(Cl)c1)C(=O)N(C)OC` [Compound A21, 3-Chlorobenzyl ((12S,15S)-16-cyclohexyl-12-(methoxy(methyl)carbamoyl)-8-methyl-4,9,14-trioxo-5-oxa-3,8,13-triazahexadecan-15-yl)carbamate], under setting [1], the IC50 is over 200 µM. The compound `CC(C)C[C@@H]1NC(=O)OC(Cc2ccccc2)CCC=CCC(C(=O)N(C)C)C[C@@H](C(=O)C(=O)NC(C)C)NC1=O` (stereo partly drawn) [Compound B42, (4S,7S)-15-benzyl-4-isobutyl-7-(2-(isopropylamino)-2-oxoacetyl)-N,N-dimethyl-2,5-dioxo-1-oxa-3,6-diazacyclopentadec-11-ene-9-carboxamide] registered an IC50 of over 200 µM. With `CCCCCCC1CCC/C=C\CC(C(=O)N(C)C)CC(C(=O)N(C)OC)NC(=O)C(CC(C)C)NC(=O)C1` (stereo in doubt) [Compound B14, (2S,5S,Z)-14-hexyl-2-isobutyl-N5-methoxy-N^5,N^7,N^7-trimethyl-3,16-dioxo-1,4-diazacyclohexadec-9-ene-5,7-dicarboxamide], the IC50 under setting [1] is over 200 µM.

Take `CC(C)C[C@@H]1NC(=O)C(Cc2ccccc2)CCCCCCCC2CC(NC1=O)C(O)N(C)C2=O` (stereo partly drawn) [Compound B24, (4S)-7-benzyl-18-hydroxy-4-isobutyl-17-methyl-2,5,17-triazabicyclo[13.3.1]nonadecane-3,6,16-trione]: the IC50 under setting [1] was 188 µM. The same measure, in the same setting: the figure for `CCCCCCCC1CCCCCC(C(=O)N(C)C)CC(C=O)NC(=O)[C@H](CC(C)C)NC1=O` (stereo in doubt) [Compound B18, (2S,5S)-5-formyl-13-heptyl-2-isobutyl-N,N-dimethyl-3,14-dioxo-1,4-diazacyclotetradecane-7-carboxamide] is over 200 µM; for `CCNC(=O)OCCN(C)C(=O)CC[C@H](NC(=O)[C@H](CC1CCCCC1)NC(=O)OCc1cccc(Cl)c1)C(O)P(=O)(OCC)OCC` (stereo partly drawn) [Compound A28, 3-Chlorobenzyl ((12S,15S)-16-cyclohexyl-12-((diethoxyphosphoryl)(hydroxy)methyl)-8-methyl-4,9,14-trioxo-5-oxa-3,8,13-triazahexadecan-15-yl)carbamate] it is over 200 µM; for `CCOP(=O)(OCC)C(O)[C@@H]1CC(C(=O)N(C)C)CCCCCC(Cc2ccccc2)OC(=O)N[C@@H](CC(C)C)C(=O)N1` (stereo partly drawn) [Compound B45, Diethyl (((4S,7S)-15-benzyl-9-(dimethylcarbamoyl)-4-isobutyl-2,5-dioxo-1-oxa-3,6-diazacyclopentadecan-7-yl)(hydroxy)methyl)phosphonate] it is over 200 µM. As for `CON(C)C(=O)[C@@H]1CC(C(=O)N(C)C)C/C=C/CCC(Cc2ccccc2)OC(=O)NC(CC(C)C)C(=O)N1` (stereo in doubt) [Compound B31, (4S,7S)-15-Benzyl-4-isobutyl-N7-methoxy-N7,N9,N9-trimethyl-2,5-dioxo-1-oxa-3,6-diazacyclopentadec-11-ene-7,9-dicarboxamide], the IC50 under setting [1] is over 200 µM. Still for that read-out and setting: the figure for `CON(C)C(=O)[C@H](CC(C)C(=O)N(C)CCc1ccccc1)NC(=O)[C@H](CC1CCCCC1)NC(=O)OCc1cccc(Cl)c1` (stereo in doubt) [Compound A37, 3-Chlorobenzyl ((2S)-3-cyclohexyl-1-(((2S)-1-(methoxy (methyl)amino)-4-methyl-5-(methyl (phenethyl)amino)-1,5-dioxopentan-2-yl)amino)-1-oxopropan-2-yl) carbamate] is over 200 µM; for `CON(C)C(=O)[C@H](CCC(=O)N(C)CCc1ccccc1)NC(=O)[C@H](CC1CCCCC1)NC(=O)OCc1cccc(Cl)c1` (stereo in doubt) [Compound A30, 3-chlorobenzyl ((S)-3-cyclohexyl-1-(((S)-1-(methoxy(methyl)amino)-5-(methyl(phenethyl)amino)-1,5-dioxopentan-2-yl)amino)-1-oxopropan-2-yl)carbamate] it is over 200 µM; for `CCCCCCCC1CCCC/C=C/CC(C(=O)N(C)C)CC(C=O)NC(=O)[C@H](CC(C)C)NC1=O` (stereo in doubt) [Compound B7, (2S,5S,E)-5-formyl-15-heptyl-2-isobutyl-N,N-dimethyl-3,16-dioxo-1,4-diazacyclohexadec-9-ene-7-carboxamide] it is over 200 µM. Same read-out and setting: for `CON(C)C(=O)[C@H](CCC(=O)N(C)CCc1ccc(Cl)cc1)NC(=O)[C@H](CC1CCCCC1)NC(=O)OCc1cccc(Cl)c1` (stereo in doubt) [Compound A41, 3-Chlorobenzyl ((S)-1-(((S)-5-((4-chlorophenethyl)(methyl)amino)-1-(methoxy(methyl)amino)-1,5-dioxopentan-2-yl)amino)-3-cyclohexyl-1-oxopropan-2-yl)carbamate] the value was 30 µM; for `CCCCCCCCC(=O)N[C@@H](CC(C)C)C(=O)NC1CCC(=O)N(C)C1(O)C(=O)NC(C)C` (stereo in doubt) [Compound A4, (3S)-2-hydroxy-N-isopropyl-1-methyl-3-((S)-4-methyl-2-nonanamidopentanamido)-6-oxopiperidine-2-carboxamide], over 200 µM; for `CCOC(=O)NCCN(C)C(=O)CC[C@H](NC(=O)[C@H](CC1CCCCC1)NC(=O)OCc1cccc(Cl)c1)C(O)P(=O)(OCC)OCC` (stereo partly drawn) [Compound A31, 3-Chlorobenzyl ((12S,15S)-16-cyclohexyl-12-((diethoxyphosphoryl)(hydroxy)methyl)-8-methyl-4,9,14-trioxo-3-oxa-5,8,13-triazahexadecan-15-yl)carbamate], 46 µM. For `CCCCCCCC1CC/C=C/CC(C(=O)NC)C[C@@H](CO)NC(=O)[C@H](CC(C)C)NC(=O)O1` (stereo partly drawn) [Compound B63, (4S,7S,E)-15-heptyl-7-(hydroxymethyl)-4-isobutyl-N-methyl-2,5-dioxo-1-oxa-3,6-diazacyclopentadec-11-ene-9-carboxamide], the IC50 under setting [1] came to 30 µM. On the same count and under the same terms, the figure for `CCN(CCc1ccccc1)C(=O)CC[C@H](NC(=O)[C@H](CC1CCCCC1)NC(=O)OCc1cccc(Cl)c1)C(=O)N(C)OC` (stereo in doubt) [Compound A42, 3-Chlorobenzyl ((S)-3-cyclohexyl-1-(((S)-5-(ethyl(phenethyl)amino)-1-(methoxy(methyl)amino)-1,5-dioxopentan-2-yl)amino)-1-oxopropan-2-yl)carbamate] is over 200 µM.
